Consider 6 molecules from patent US12139520B2 (priority 2020, dated 2024).

Bridge positions count the residues as written; N and C are the ends. Square brackets hold non-standard residues; d marks the D form. Peptide text beside a SMILES is read from it. Hyp = O=C(O)[C@@H]1C[C@@H](O)CN1; Cit = NC(=O)NCCC[C@H](N)C(=O)O

One series deals with T1, hAMY3 receptor (Homo sapiens, UniProt O60896+P30988).
T1 sequence (P30988 25-474): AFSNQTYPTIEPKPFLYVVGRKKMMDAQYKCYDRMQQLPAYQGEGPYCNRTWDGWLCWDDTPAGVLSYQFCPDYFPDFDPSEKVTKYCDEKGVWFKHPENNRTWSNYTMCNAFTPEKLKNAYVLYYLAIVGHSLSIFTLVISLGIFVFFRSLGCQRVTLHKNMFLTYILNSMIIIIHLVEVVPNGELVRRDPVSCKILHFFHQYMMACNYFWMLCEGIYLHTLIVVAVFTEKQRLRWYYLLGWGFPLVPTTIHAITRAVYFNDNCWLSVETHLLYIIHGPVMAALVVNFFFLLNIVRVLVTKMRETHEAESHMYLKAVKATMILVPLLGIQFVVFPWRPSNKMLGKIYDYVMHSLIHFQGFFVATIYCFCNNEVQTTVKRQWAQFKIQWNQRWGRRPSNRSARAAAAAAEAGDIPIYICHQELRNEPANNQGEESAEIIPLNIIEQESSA
T1 sequence (O60896 24-148 partner): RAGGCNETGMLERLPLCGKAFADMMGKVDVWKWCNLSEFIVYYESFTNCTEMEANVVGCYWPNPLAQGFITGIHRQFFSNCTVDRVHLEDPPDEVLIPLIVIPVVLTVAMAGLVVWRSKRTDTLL
Briefly: cAMP assay for in vitro receptor activation, hAMY3-R. It counts as cell-based. Conditions: cAMP assay, hAMY3 receptor; read-out: hAMY3R EC50. The essentials:
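Thawed cells from a sub-cloned monoclonal hAMY3-overexpressing line are plated in DPBS containing 0.05% casein and 0.5 mM IBMX. Test compounds are added immediately at graded doses for 30 min at room temperature. Reagents for cAMP detection are then added, and TR-FRET is recorded after one hour.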
A general note: Cyclic AMP is a second messenger, typically raised through Gs and lowered through Gi signalling.

The target in the next series is hAM1 receptor (Homo sapiens, UniProt O60895+Q16602). The series is described as follows: cAMP assay for in vitro receptor activation, hAM1-R. It counts as cell-based. Conditions: cAMP assay, hAM1 receptor; read-out: hAM1R EC50. The essentials:
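Receptor activation, read as cAMP, was assessed in thawed cells of a monoclonal hAM1-overexpressing stable line, plated at 8000 cells/well in DPBS supplemented with 0.05% casein and 0.5 mM IBMX.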

A short description of series [1]: Physical stability of peptide analogues (Thioflavin T fibrillation). It counts as physicochemical. As to conditions: maximum ThT signal normalized between hAMY maximum and buffer background; 40° C., shaking, four days; pH 7 per table title. The essentials: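 Maximum ThT emission at 480 nm, after LOESS smoothing, is given as percent of the span from buffer background to hAMY. Conditions: 50 mM buffer at pH 4 or 7, 4 μM dye, 40 °C, repeated shaking, readings every 10 min for four days.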

Sequence of hAM1 receptor (Q16602 23-461): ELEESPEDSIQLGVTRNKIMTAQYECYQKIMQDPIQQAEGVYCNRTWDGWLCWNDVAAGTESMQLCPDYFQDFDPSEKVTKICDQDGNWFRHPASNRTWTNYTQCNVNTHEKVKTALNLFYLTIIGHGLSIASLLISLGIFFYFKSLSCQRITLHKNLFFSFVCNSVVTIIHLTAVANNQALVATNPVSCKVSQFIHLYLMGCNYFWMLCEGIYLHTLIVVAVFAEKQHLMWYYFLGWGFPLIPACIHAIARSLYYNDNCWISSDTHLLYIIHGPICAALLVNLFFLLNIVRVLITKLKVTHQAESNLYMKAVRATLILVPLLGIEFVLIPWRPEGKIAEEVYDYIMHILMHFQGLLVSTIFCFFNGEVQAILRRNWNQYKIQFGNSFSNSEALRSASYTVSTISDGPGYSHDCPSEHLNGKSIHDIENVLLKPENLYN
Sequence of hAM1 receptor (O60895 43-175 partner): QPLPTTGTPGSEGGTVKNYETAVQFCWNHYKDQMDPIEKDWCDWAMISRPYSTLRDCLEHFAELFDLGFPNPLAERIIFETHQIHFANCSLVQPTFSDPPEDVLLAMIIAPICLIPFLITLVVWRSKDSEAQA

For `CC[C@H](C)[C@H](NC(=O)[C@H](CCC(N)=O)NC(=O)[C@H](Cc1c[nH]cn1)NC(=O)[C@H](C)NC(=O)[C@H](CC(C)C)NC(=O)[C@H](CCCNC(N)=O)NC(=O)[C@H](CCC(N)=O)NC(=O)[C@@H](NC(=O)[C@@H](NC(=O)[C@@H]1CSSC[C@H](NC(=O)CN)C(=O)N[C@@H](CCCNC(=N)N)C(=O)N[C@@H](Cc2ccccc2)C(=O)NCC(=O)N[C@@H]([C@@H](C)O)C(=O)N1)[C@@H](C)O)C(C)C)C(=O)N[C@@H](Cc1ccc(O)cc1)C(=O)N[C@@H](CCC(N)=O)C(=O)N[C@@H](Cc1ccccc1)C(=O)N[C@H](C(=O)N[C@@H](CC(=O)O)C(=O)N[C@@H](CCCCN)C(=O)N[C@@H](CC(=O)O)C(=O)N[C@@H](CCCCN)C(=O)N[C@@H](CC(=O)O)C(=O)N[C@@H](CC(N)=O)C(=O)N[C@H](C(=O)N[C@@H](C)C(=O)N1CCC[C@H]1C(=O)N[C@@H](CCCNC(=N)N)C(=O)N[C@H](C(=O)N[C@@H](CC(N)=O)C(=O)N[C@H](C(=O)N[C@@H](CO)C(=O)N1CCC[C@H]1C(=O)N[C@@H](CCC(N)=O)C(=O)NCC(=O)N1C[C@H](O)C[C@H]1C(N)=O)C(C)C)[C@@H](C)O)C(C)C)[C@@H](C)O` [compound 283] (H-GCRFGTCTVQ[Cit]LAHQIYQFTDKDKDNVAPRTNVSPQG[Hyp]-NH2; disulfide 2-7; N-terminus assumed), the EC50 (commonly the concentration giving half of the maximal effect) at hAMY3 receptor is 0.035 nM; at hAM1 receptor, > 5000 nM. Further, in series [1], the “Max ThT signal (%)” value came to 17.100%.

In the case of `CC[C@H](C)[C@H](NC(=O)[C@H](CCC(N)=O)NC(=O)[C@H](Cc1c[nH]cn1)NC(=O)[C@H](C)NC(=O)[C@H](CC(C)C)NC(=O)[C@H](CCCNC(N)=O)NC(=O)[C@H](CCC(N)=O)NC(=O)[C@@H](NC(=O)[C@@H](NC(=O)[C@@H]1CSSC[C@H](NC(=O)CN)C(=O)N[C@@H](CCCNC(=N)N)C(=O)N[C@@H]([C@@H](C)O)C(=O)NCC(=O)N[C@@H]([C@@H](C)O)C(=O)N1)[C@@H](C)O)C(C)C)C(=O)N[C@@H](Cc1ccc(O)cc1)C(=O)N[C@@H](CCC(N)=O)C(=O)N[C@@H](Cc1ccccc1)C(=O)N[C@H](C(=O)N[C@@H](CC(=O)O)C(=O)N[C@@H](CCCCN)C(=O)N[C@@H](CC(=O)O)C(=O)N[C@@H](CCCCN)C(=O)N[C@@H](CC(=O)O)C(=O)N[C@@H](CC(N)=O)C(=O)N[C@H](C(=O)N[C@@H](C)C(=O)N1CCC[C@H]1C(=O)N[C@@H](CCCNC(=N)N)C(=O)N[C@@H](CO)C(=O)N[C@@H](CCCCN)C(=O)N[C@H](C(=O)NCC(=O)N1CCC[C@H]1C(=O)N[C@@H](CCC(N)=O)C(=O)NCC(=O)N[C@@H](Cc1ccc(O)cc1)C(N)=O)C(C)C)C(C)C)[C@@H](C)O` [compound 285] (H-GCRTGTCTVQ[Cit]LAHQIYQFTDKDKDNVAPRSKVGPQGY-NH2; disulfide 2-7; N-terminus assumed), the EC50 at hAMY3 receptor is 0.157 nM; on hAM1 receptor it was > 5000 nM. Moreover, in series [1], the “Max ThT signal (%)” value is recorded as 31.200%.

`CC[C@H](C)[C@H](NC(=O)[C@H](CCC(N)=O)NC(=O)[C@H](Cc1c[nH]cn1)NC(=O)[C@H](C)NC(=O)[C@H](CC(C)C)NC(=O)[C@H](CCCNC(N)=O)NC(=O)[C@H](CCC(N)=O)NC(=O)[C@@H](NC(=O)[C@@H](NC(=O)[C@@H]1CSSC[C@H](NC(=O)CN)C(=O)N[C@@H](CCCNC(=N)N)C(=O)N[C@@H](Cc2ccccc2)C(=O)NCC(=O)N[C@@H]([C@@H](C)O)C(=O)N1)[C@@H](C)O)C(C)C)C(=O)N[C@@H](Cc1ccc(O)cc1)C(=O)N[C@@H](CCC(N)=O)C(=O)N[C@@H](Cc1ccccc1)C(=O)N[C@H](C(=O)N[C@@H](CC(=O)O)C(=O)N[C@@H](CCCCN)C(=O)N[C@@H](CC(=O)O)C(=O)N[C@@H](CCCCN)C(=O)N[C@@H](CC(=O)O)C(=O)N[C@@H](CC(N)=O)C(=O)N[C@H](C(=O)N[C@@H](C)C(=O)N1CCC[C@H]1C(=O)N[C@@H](CCCNC(=N)N)C(=O)N[C@H](C(=O)N[C@@H](CCCCN)C(=O)N[C@H](C(=O)N[C@@H](CO)C(=O)N1CCC[C@H]1C(=O)N[C@@H](CC(N)=O)C(=O)NCC(=O)N1C[C@H](O)C[C@H]1C(N)=O)C(C)C)[C@@H](C)O)C(C)C)[C@@H](C)O` [compound 288] (H-GCRFGTCTVQ[Cit]LAHQIYQFTDKDKDNVAPRTKVSPNG[Hyp]-NH2; disulfide 2-7; N-terminus assumed): the EC50 at hAMY3 receptor is 0.03 nM; at hAM1 receptor it was > 5000 nM. In addition, in series [1], the “Max ThT signal (%)” value is recorded as 17.450%.

As to `CC[C@H](C)[C@H](NC(=O)[C@H](CCC(N)=O)NC(=O)[C@H](Cc1c[nH]cn1)NC(=O)[C@H](C)NC(=O)[C@H](CC(C)C)NC(=O)[C@H](CCCNC(N)=O)NC(=O)[C@H](CCC(N)=O)NC(=O)[C@@H](NC(=O)[C@@H](NC(=O)[C@@H]1CSSC[C@H](NC(=O)CN)C(=O)N[C@@H](CCCNC(=N)N)C(=O)N[C@@H]([C@@H](C)O)C(=O)NCC(=O)N[C@@H]([C@@H](C)O)C(=O)N1)[C@@H](C)O)C(C)C)C(=O)N[C@@H](Cc1ccc(O)cc1)C(=O)N[C@@H](CCC(N)=O)C(=O)N[C@@H](Cc1ccccc1)C(=O)N[C@H](C(=O)N[C@@H](CC(=O)O)C(=O)N[C@@H](CCCCN)C(=O)N[C@@H](CC(=O)O)C(=O)N[C@@H](CCCCN)C(=O)N[C@@H](CC(=O)O)C(=O)N[C@@H](CC(N)=O)C(=O)N[C@H](C(=O)N[C@@H](C)C(=O)N1CCC[C@H]1C(=O)N[C@@H](CCCNC(=N)N)C(=O)N[C@@H](CO)C(=O)N[C@@H](CCCCN)C(=O)N[C@H](C(=O)NCC(=O)N1CCC[C@H]1C(=O)N[C@@H](CC(N)=O)C(=O)NCC(=O)N1C[C@H](O)C[C@H]1C(N)=O)C(C)C)C(C)C)[C@@H](C)O` [compound 290] (H-GCRTGTCTVQ[Cit]LAHQIYQFTDKDKDNVAPRSKVGPNG[Hyp]-NH2; disulfide 2-7; N-terminus assumed), the values for the EC50 at hAMY3 receptor and at hAM1 receptor were 0.047 nM and > 5000 nM, respectively. Further, the “Max ThT signal (%)” value in series [1] is listed as 17.300%.

Consider `CC[C@H](C)[C@H](NC(=O)[C@H](CCC(N)=O)NC(=O)[C@H](Cc1c[nH]cn1)NC(=O)[C@H](C)NC(=O)[C@H](CC(C)C)NC(=O)[C@H](CCCNC(N)=O)NC(=O)[C@H](CCC(N)=O)NC(=O)[C@@H](NC(=O)[C@@H](NC(=O)[C@@H]1CSSC[C@H](NC(=O)CN)C(=O)N[C@@H](CCCNC(=N)N)C(=O)N[C@@H](Cc2ccccc2)C(=O)NCC(=O)N[C@@H]([C@@H](C)O)C(=O)N1)[C@@H](C)O)C(C)C)C(=O)N[C@@H](Cc1ccc(O)cc1)C(=O)N[C@@H](CCC(N)=O)C(=O)N[C@@H](Cc1ccccc1)C(=O)N[C@H](C(=O)N[C@@H](CC(=O)O)C(=O)N[C@@H](CCCCN)C(=O)N[C@@H](CC(=O)O)C(=O)N[C@@H](CCCCN)C(=O)N[C@@H](CC(=O)O)C(=O)N[C@@H](CC(N)=O)C(=O)N[C@H](C(=O)N[C@@H](C)C(=O)N1CCC[C@H]1C(=O)N[C@@H](CCCNC(=N)N)C(=O)N[C@H](C(=O)N[C@@H](CC(N)=O)C(=O)N[C@H](C(=O)N[C@@H](CO)C(=O)N1CCC[C@H]1C(=O)N[C@@H](CCC(N)=O)C(=O)NCC(=O)N1C[C@H](O)C[C@H]1C(N)=O)[C@@H](C)CC)[C@@H](C)O)C(C)C)[C@@H](C)O` [compound 291] (H-GCRFGTCTVQ[Cit]LAHQIYQFTDKDKDNVAPRTNISPQG[Hyp]-NH2; disulfide 2-7), for which the EC50 at hAMY3 receptor is 0.064 nM; at hAM1 receptor it was > 5000 nM. Moreover, in series [1], the “Max ThT signal (%)” value was 19.200%.

`CC[C@H](C)[C@H](NC(=O)[C@H](CCC(N)=O)NC(=O)[C@H](Cc1c[nH]cn1)NC(=O)[C@H](C)NC(=O)[C@H](CC(C)C)NC(=O)[C@H](CCCNC(N)=O)NC(=O)[C@H](CCC(N)=O)NC(=O)[C@@H](NC(=O)[C@@H](NC(=O)[C@@H]1CSSC[C@H](NC(=O)CN)C(=O)N[C@@H](CCCNC(=N)N)C(=O)N[C@@H](Cc2ccccc2)C(=O)NCC(=O)N[C@@H]([C@@H](C)O)C(=O)N1)[C@@H](C)O)C(C)C)C(=O)N[C@@H](Cc1ccc(O)cc1)C(=O)N[C@@H](CCC(N)=O)C(=O)N[C@@H](Cc1ccccc1)C(=O)N[C@H](C(=O)N[C@@H](CC(=O)O)C(=O)N[C@@H](CCCCN)C(=O)N[C@@H](CC(=O)O)C(=O)N[C@@H](CCCCN)C(=O)N[C@@H](CC(=O)O)C(=O)N[C@@H](CC(N)=O)C(=O)N[C@H](C(=O)N[C@@H](C)C(=O)N1CCC[C@H]1C(=O)N[C@@H](CCCNC(=N)N)C(=O)N[C@@H](CO)C(=O)N[C@@H](CC(N)=O)C(=O)N[C@H](C(=O)N[C@@H](CO)C(=O)N1CCC[C@H]1C(=O)N[C@@H](CCC(N)=O)C(=O)NCC(=O)N1C[C@H](O)C[C@H]1C(N)=O)C(C)C)C(C)C)[C@@H](C)O` [compound 293] (H-GCRFGTCTVQ[Cit]LAHQIYQFTDKDKDNVAPRSNVSPQG[Hyp]-NH2; disulfide 2-7; N-terminus assumed): the results for the concentration giving a half-maximal response (EC50) on hAMY3 receptor and at hAM1 receptor were 0.063 nM and > 5000 nM, respectively. In series [1], the “Max ThT signal (%)” value is given as 24.200%.
